26 molecules from patent US8618300B2, “Indolizine inhibitors of leukotriene production” (Boehringer Ingelheim International GmbH, priority 2008, dated 2013) can be followed below.

The experiment deals with T1, recombinant human FLAP protein (Homo sapiens, UniProt P20292).
T1 construct: made in house; host or cells: Sf9 insect cells (100,000 x g membrane pellet)
T1 sequence (P20292 1-161): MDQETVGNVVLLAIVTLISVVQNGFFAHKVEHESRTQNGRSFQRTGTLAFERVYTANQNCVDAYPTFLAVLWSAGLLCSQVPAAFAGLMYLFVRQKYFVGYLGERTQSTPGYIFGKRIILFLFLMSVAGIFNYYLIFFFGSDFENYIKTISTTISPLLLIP
The experiment in a line: FLAP binding assay, Scintillation Proximity Assay, displacement of [125I]L-691,831. The note with it: read-out: hFLAP binding IC50. Here is the method: Compounds are assessed for the ability to bind to FLAP in a binding assay that measures compound-specific displacement of an iodinated (^1251) FLAP inhibitor via a Scintillation Proximity Assay format (adapted from S. Charleson et al., Mol. Pharmacol., 1992, 41, 873-879).
Cell pellets produced from sf9 insect cells expressing recombinant human FLAP protein are resuspended in buffer A [15 mM Tris-HCl (pH 7.5), 2 mM MgCl2, 0.3 mM EDTA, 1 mM PMSF]. The cells are lysed with a Dounce homogenizer and the material is centrifuged at 10,000×g for 10 minutes. The supernatant is then collected and centrifuged at 100,000×g for 60 minutes. To prepare membrane protein for an assay, an aliquot of the 100,000×g pellet is resuspended in 1 ml of buffer A, Dounce homogenized, and finally subjected to polytron mixing (30 seconds). Membrane protein (25 μl, 5 μg) is mixed with WGA SPA beads (Amersham) and stirred for 1 h. To an assay plate (Perkin Elmer FlexiPlate) is added 25 μl of test compound prepared in Binding buffer [100 mM Tris (pH 7.5), 140 mM NaCl, 5% glycerol, 2 mM EDTA, 0.5 mM TCEP, 0.05% Tween 20], 25 μl of [^125I]L-691,831 (an iodinated analog of MK-591, Charleson et al. Mol. Pharmacol., 41, 873-879, 1992) and finally 50 μl of the bead/protein mixture. (final concentrations: beads, 200 μg/well; protein, 5 μg/well; [^125I] probe, 0 08 nM/well (17 nCi/well). The plates are shaken for 2 h before reading on a Microbeta plate reader. Non-specific binding is determined by the addition of 10 μM cold L-691,831 compound.

Consider `Cc1nc(COc2ccn3c(C(=O)c4ccc(Cl)cc4)c(CC(C)(C)C(=O)O)c(C(=O)C(C)(C)C)c3c2)no1`, for which the 50% inhibitory concentration (IC50) worked out at 90 nM.

Consider `CC(C)(C)C(=O)c1c(CC(C)(C)C(=O)O)c(C(=O)c2ccc(Cl)cc2)n2ccc(OCc3nc4ccccc4s3)cc12`, for which the IC50 amounted to 4 nM.

For the molecule `COc1cncc(-c2ccc(C(=O)c3c(CC(C)(C)C(=O)O)c(C(=O)C(C)(C)C)c4cc(OCc5ccccn5)ccn34)cc2)c1` [3-[1-(2,2-dimethylpropanoyl)-3-{[4-(5-methoxypyridin-3-yl)phenyl]carbonyl}-7-(pyridin-2-ylmethoxy)indolizin-2-yl]-2,2-dimethylpropanoic acid], the IC50 is 22 nM.

Regarding `COc1ccnc(COc2ccn3c(C(=O)c4ccc(Cl)cc4)c(CC(C)(C)C(=O)O)c(C(=O)C(C)(C)C)c3c2)c1` [3-{3-[(4-chlorophenyl)carbonyl]-1-(2,2-dimethylpropanoyl)-7-[(4-methoxypyridin-2-yl)methoxy]indolizin-2-yl}-2,2-dimethylpropanoic acid], the half-inhibitory concentration (IC50) amounted to 8 nM.

Turning to `Cc1nc(COc2ccc3c(C(=O)c4ccc(Cl)cc4)c(CC(C)(C)C(=O)O)c(C(=O)C(C)(C)C)n3c2)cs1` [3-{1-[(4-chlorophenyl)carbonyl]-3-(2,2-dimethylpropanoyl)-6-[(2-methyl-1,3-thiazol-4-yl)methoxy]indolizin-2-yl}-2,2-dimethylpropanoic acid], the concentration for half-maximal inhibition (IC50) was 38 nM.

As to `COc1c(C)cnc(COc2ccn3c(C(=O)c4ccc(Cl)cc4)c(CC(C)(C)C(=O)O)c(C(=O)C(C)(C)C)c3c2)c1C` [3-{3-[(4-chlorophenyl)carbonyl]-1-(2,2-dimethylpropanoyl)-7-[(4-methoxy-3,5-dimethylpyridin-2-yl)methoxy]indolizin-2-yl}-2,2-dimethylpropanoic acid], the IC50 was found to be 58 nM.

`CC(C)(C)C(=O)c1c(CC(C)(C)C(=O)O)c(C(=O)c2ccc(Cl)cc2)n2ccc(OCc3ccc4ccccc4n3)cc12` [3-{3-[(4-chlorophenyl)carbonyl]-1-(2,2-dimethylpropanoyl)-7-(quinolin-2-ylmethoxy)indolizin-2-yl}-2,2-dimethylpropanoic acid]: the 50% inhibitory concentration (IC50) is 8 nM.

`CCC(C)(Cc1c(C(=O)C(C)(C)C)c2cc(OCc3csc(C)n3)ccn2c1C(=O)c1ccc(OC)cc1)C(=O)O` (centres unmarked) [2-({1-(2,2-dimethylpropanoyl)-3-[(4-methoxyphenyl)carbonyl]-7-[(2-methyl-1,3-thiazol-4-yl)methoxy]indolizin-2-yl}methyl)-2-methylbutanoic acid]: the IC50 was 2 nM.

As to `CC(C)(C)C(=O)c1c(CC(C)(C)C(=O)O)c(C(=O)c2ccc(Cl)cc2)c2ccc(OCc3nc4ccccc4s3)cn12` [3-[6-(1,3-benzothiazol-2-ylmethoxy)-1-[(4-chlorophenyl)carbonyl]-3-(2,2-dimethylpropanoyl)indolizin-2-yl]-2,2-dimethylpropanoic acid], the concentration for half-maximal inhibition (IC50) is 9 nM.

For `CC(C)(C)C(=O)c1c(CC(C)(C)C(=O)O)c(C(=O)c2ccc(Cl)cc2)c2ccc(OCc3ccccn3)cn12` [3-{1-[(4-chlorophenyl)carbonyl]-3-(2,2-dimethylpropanoyl)-6-(pyridin-2-ylmethoxy)indolizin-2-yl}-2,2-dimethylpropanoic acid], the concentration for half-maximal inhibition (IC50) came to 79 nM.

On to `Cc1cccc(COc2ccn3c(C(=O)c4ccc(Cl)cc4)c(CC(C)(C)C(=O)O)c(C(=O)C(C)(C)C)c3c2)n1` [3-{3-[(4-chlorophenyl)carbonyl]-1-(2,2-dimethylpropanoyl)-7-[(6-methylpyridin-2-yl)methoxy]indolizin-2-yl}-2,2-dimethylpropanoic acid], for which the 50% inhibitory concentration (IC50) was 17 nM.

In the case of `CC(C)c1ccn2c(C(=O)c3ccc(-c4cccnc4)cc3)c(CC(C)(C)C(=O)O)c(C(=O)C(C)(C)C)c2c1` [3-[1-(2,2-dimethylpropanoyl)-7-(propan-2-yl)-3-{[4-(pyridin-3-yl)phenyl]carbonyl}indolizin-2-yl]-2,2-dimethylpropanoic acid], the IC50 came out at 165 nM.

For `COc1ccc(-c2ccc(C(=O)c3c(CC(C)(C)C(=O)O)c(C(=O)C(C)(C)C)c4cc(C(C)C)ccn34)cc2)cn1`, the IC50 was found to be 232 nM.

Turning to `CC(C)(C)CC(=O)c1c(CC(C)(C)C(=O)O)c(C(=O)c2ccc(Cl)cc2)n2ccc(OCc3ccc4ccccc4n3)cc12` [3-{3-[(4-chlorophenyl)carbonyl]-1-(3,3-dimethylbutanoyl)-7-(quinolin-2-ylmethoxy)indolizin-2-yl}-2,2-dimethylpropanoic acid], the IC50 came out at 85 nM.

For the molecule `CC(C)c1ccn2c(C(=O)c3ccc(C(F)(F)F)cc3)c(CC(C)(C)C(=O)O)c(C(=O)C(C)(C)C)c2c1` [3-[1-(2,2-dimethylpropanoyl)-7-(propan-2-yl)-3-{[4-(trifluoromethyl)phenyl]carbonyl}indolizin-2-yl]-2,2-dimethylpropanoic acid], the IC50 came to 316 nM.

For `COc1ccc(C(=O)c2c(CC(C)(C)C(=O)O)c(C(=O)C(C)(C)C)c3cc(OCc4nc(C)cs4)ccn23)cc1` [3-{1-(2,2-dimethylpropanoyl)-3-[(4-methoxyphenyl)carbonyl]-7-[(4-methyl-1,3-thiazol-2-yl)methoxy]indolizin-2-yl}-2,2-dimethylpropanoic acid], the IC50 stood at 3 nM.

Take `CC(C)(C)C(=O)c1c(CC(C)(C)C(=O)O)c(C(=O)c2ccc(Cl)cc2)n2ccc(OCc3cscn3)cc12` [3-{3-[(4-chlorophenyl)carbonyl]-1-(2,2-dimethylpropanoyl)-7-(1,3-thiazol-4-ylmethoxy)indolizin-2-yl}-2,2-dimethylpropanoic acid]: the half-maximal inhibitory concentration (IC50) was found to be 118 nM.

Regarding `COc1ccc(C(=O)c2c(CC(C(=O)O)C(C)C)c(C(=O)C(C)(C)C)c3cc(OCc4csc(C)n4)ccn23)cc1` (centres unmarked) [2-({1-(2,2-dimethylpropanoyl)-3-[(4-methoxyphenyl)carbonyl]-7-[(2-methyl-1,3-thiazol-4-yl)methoxy]indolizin-2-yl}methyl)-3-methylbutanoic acid], the IC50 worked out at 13 nM.

For `Cc1ccc(C(=O)c2c(CC(C)(C)C(=O)O)c(C(=O)C(C)(C)C)c3cc(OCc4cccc(C)n4)ccn23)cc1` [3-{1-(2,2-dimethylpropanoyl)-3-[(4-methylphenyl)carbonyl]-7-[(6-methylpyridin-2-yl)methoxy]indolizin-2-yl}-2,2-dimethylpropanoic acid], the IC50 was 3 nM.

For the molecule `COc1nc(COc2ccn3c(C(=O)c4ccc(Cl)cc4)c(CC(C)(C)C(=O)O)c(C(=O)C(C)(C)C)c3c2)cs1` [3-{3-[(4-chlorophenyl)carbonyl]-1-(2,2-dimethylpropanoyl)-7-[(2-methoxy-1,3-thiazol-4-yl)methoxy]indolizin-2-yl}-2,2-dimethylpropanoic acid], the IC50 came out at 69 nM.

Regarding `Cc1csc(COc2ccn3c(C(=O)c4cccc(Cl)c4)c(CC(C)(C)C(=O)O)c(C(=O)C(C)(C)C)c3c2)n1` [3-{3-[(3-chlorophenyl)carbonyl]-1-(2,2-dimethylpropanoyl)-7-[(4-methyl-1,3-thiazol-2-yl)methoxy]indolizin-2-yl}-2,2-dimethylpropanoic acid], the IC50 worked out at 1 nM.

As to `CCCC(Cc1c(C(=O)C(C)(C)C)c2cc(OCc3csc(C)n3)ccn2c1C(=O)c1ccc(OC)cc1)C(=O)O` (centres unmarked) [2-({1-(2,2-dimethylpropanoyl)-3-[(4-methoxyphenyl)carbonyl]-7-[(2-methyl-1,3-thiazol-4-yl)methoxy]indolizin-2-yl}methyl)pentanoic acid], the half-inhibitory concentration (IC50) is 7 nM.

`Cc1nc(COc2ccn3c(C(=O)c4cc(Cl)cc(Cl)c4)c(CC(C)(C)C(=O)O)c(C(=O)C(C)(C)C)c3c2)cs1` [3-{3-[(3,5-dichlorophenyl)carbonyl]-1-(2,2-dimethylpropanoyl)-7-[(2-methyl-1,3-thiazol-4-yl)methoxy]indolizin-2-yl}-2,2-dimethylpropanoic acid]: the IC50 amounted to 1 nM.

On to `COc1ccncc1-c1ccc(C(=O)c2c(CC(C)(C)C(=O)O)c(C(=O)C(C)(C)C)c3cc(OCc4ccccn4)ccn23)cc1` [3-[1-(2,2-dimethylpropanoyl)-3-{[4-(4-methoxypyridin-3-yl)phenyl]carbonyl}-7-(pyridin-2-ylmethoxy)indolizin-2-yl]-2,2-dimethylpropanoic acid], for which the IC50 stood at 67 nM.

For the molecule `CCCC(Cc1c(C(=O)C(C)(C)C)c2cc(OCc3nc(C)cs3)ccn2c1C(=O)c1ccc(Cl)c(Cl)c1)C(=O)O` (centres unmarked) [2-({3-[(3,4-dichlorophenyl)carbonyl]-1-(2,2-dimethylpropanoyl)-7-[(4-methyl-1,3-thiazol-2-yl)methoxy]indolizin-2-yl}methyl)pentanoic acid], the concentration for half-maximal inhibition (IC50) turned out to be 15 nM.

With `Cc1cccc(COc2ccn3c(C(=O)c4ccc(Cl)c(Cl)c4)c(CC(C)(C)C(=O)O)c(C(=O)C(C)(C)C)c3c2)n1` [3-{3-[(3,4-dichlorophenyl)carbonyl]-1-(2,2-dimethylpropanoyl)-7-[(6-methylpyridin-2-yl)methoxy]indolizin-2-yl}-2,2-dimethylpropanoic acid], the IC50 came out at 1 nM.
